Measurements taken from patent US20230095695A1, “RNAS FOR COMPLEMENT INHIBITION” (Apellis Pharmaceuticals, Inc., priority 2020, published 2023).
pIC50: −log10 of the molar value. Oligonucleotides are written 5' to 3', each unit as a sugar letter and its base; * is a phosphorothioate linkage, no mark a phosphodiester; rarer units and linkages stand in square brackets, end groups in braces. Plain capitals give the bases only. m = 2'-O-methyl; f = 2'-fluoro

Key:
[1] = system: C3 mRNA; assay: Dose response experiment (DRC), C3 mRNA knockdown in HeLa cells; assay type: cell-based, human; settings: 10 concentrations from 100 nM in 6-fold dilution steps
Experimental: The top 12 siRNAs with the best activity at both doses were chosen to be tested in a dose response experiment (DRC). Dose-response experiments were done with siRNA in 10 concentrations transfected in quadruplicates, starting at 100 nM in 6-fold dilutions steps down to ˜10 fM. Mock transfected cells served as control in DRC experiments.
(§1) For each well, the target mRNA level was normalized to the respective GAPDH mRNA level. The activity of a given siRNA was expressed as percent mRNA concentration of the respective target (normalized to GAPDH mRNA) in treated cells, relative to the target mRNA concentration (normalized to GAPDH mRNA) averaged across mock transfected wells (DRCs).

[2] = system: C3 mRNA; assay: Dose response experiments (DRC) of modification variants, C3 mRNA knockdown in HepG2 cells; assay type: cell-based, human; settings: for pIC50 / IC80: 10 concentrations from 100 nM in 6-fold dilution steps; for Max KD: DRC experiments
Experimental: HepG2 cells were obtained from ATCC (ATCC in partnership with LGC Standards, Wesel, Germany, cat. #ATCC-HB-8065) and cultured in MEM Eagle (#M2279, Sigma-Aldrich, Germany), supplemented to contain 10% fetal calf serum (#1248D, Biochrom GmbH, Berlin, Germany), 1× non-essential amino acids (#K0293; Biochrom, Berlin, Germany), 4 mM L-Glutamine (#K0283, Biochrom, Berlin, Germany) and 100 U/ml Penicillin/100 μg/ml Streptomycin (#A2213, Biochrom GmbH, Berlin, Germany) at 37° C. in an atmosphere with 5% CO2 in a humidified incubator.
siRNAs were designed and synthesized based on the nucleotide sequence of the top siRNAs in terms of activity from Examples 1 and 2 (siRNA ID: 1, 4, 9, 10, 16, and 22) with different modification patterns. 5 “variants” were designed and synthesized for each of the top siRNA nucleotide sequences, and each duplex is identified as “variant1”, “variant2”, “variant3”, variant4”, “variant5” depending on which modifications were made. siRNAs from Examples 1 and 2 (siRNA ID: 1, 4, 9, 10, 16, and 22) are identified as “variant0”.
Transfection of siRNA was carried out with Lipofectamine RNAiMax (Invitrogen/Life Technologies, Karlsruhe, Germany) according to manufacturer's instructions for reverse transfection.
Each siRNA was tested using dose response experiments (DRC) in HepG2 cells. Two additional siRNAs (siRNA ID 26 and 27), known to knockdown C3 expression, were used as positive controls.
Dose-response experiments were done with siRNA in 10 concentrations transfected in quadruplicates, starting at 100 nM in 6-fold dilutions steps down to ˜10 fM. Mock transfected cells served as negative controls.
as §1

Substance | pIC50 [1] | IC80 [1] | pIC50 [2] | IC80 [2] | Max KD [2] | C3 knockdown, comparison among modification variants of the same nucleotide sequence [2]
1 (sense mU*mC*fAmAmCmUfCfAfCmCmUfGmUmAmAmUfAmAmA; antisense mU*fU*mUmAmUmUmAmCmAmGmGmUmGfAmGmUmUmGmA*mU*mU; siRNA) [compound 1] | 10.07 | 12.7 nM | 9.46 | 2.2 nM | 84% | –
4 (sense mU*mC*fCmAmAmGfCfCfUmUmGfGmCmUmCmAfAmUmA; antisense mU*fA*mUmUmGmAmGmCmCmAmAmGmGfCmUmUmGmGmA*mU*mU; siRNA) [compound 4] | 9.68 | 11.8 nM | 9.75 | 0.885 nM | 91% | –
9 (sense mA*mU*fCmGmGmAfUfCfUmUmCfAmCmCmGmUfCmAmA; antisense mU*fU*mGmAmCmGmGmUmGmAmAmGmAfUmCmCmGmAmU*mU*mU; siRNA) [compound 9] | 9.12 | – | 9.68 | 1.32 nM | 90% | –
10 (sense mU*mC*fAmAmCmUfUfCfCmUmCfCmUmGmCmGfAmAmA; antisense mU*fU*mUmCmGmCmAmGmGmAmGmGmAfAmGmUmUmGmA*mU*mU; siRNA) [compound 10] | 9.76 | – | 10.62 | 2.8 nM | 90% | –
16 (sense mC*mA*fAmUmGmAfCfUfUmUmGfAmCmGmAmGfUmAmA; antisense mU*fU*mAmCmUmCmGmUmCmAmAmAmGfUmCmAmUmUmG*mU*mU; siRNA) [compound 16] | 10.06 | 6.19 nM | 9.50 | 6.53 nM | 83% | –
22 (sense mC*mC*fAmAmCmUfAfCfAmUmGfAmAmCmCmUfAmCmA; antisense mU*fG*mUmAmGmGmUmUmCmAmUmGmUfAmGmUmUmGmG*mU*mU; siRNA) [compound 22] | 9.61 | – | 10.27 | 0.475 nM | 91% | most effective in C3 knockdown
